# Results reported in publication PMC11094793, “Discovery of LLC0424 as a Potent and Selective in Vivo NSD2 PROTAC Degrader” (Journal of Medicinal Chemistry, 2024).
# How the values were obtained:
# [1] = molecular target: T1, NSD2 (Homo sapiens, UniProt O96028); assay: Validation of mechanism of action: pretreatment rescue of LLC0424-mediated NSD2 degradation; format: cell-based; conditions: for effect of pretreatment on NSD2 protein reduction induced by LLC0424: RPMI-8402 cells, 2 μM LLC0424
# T1 sequence (O96028 211-350 limits assumed): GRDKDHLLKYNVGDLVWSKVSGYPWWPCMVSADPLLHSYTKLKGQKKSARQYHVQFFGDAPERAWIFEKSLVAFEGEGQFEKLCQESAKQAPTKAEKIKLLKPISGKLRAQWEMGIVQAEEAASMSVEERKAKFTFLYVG
# [2] = molecular target: T2, GSPT1 (Homo sapiens, UniProt P15170); assay: GSPT1 level by proteomics and immunoblotting; format: cell-based; conditions: SI Figure S5B, SEM cells
# T2 construct: endogenous in cells; host or cells: RPMI-8402, SEM, VCaP
# T2 sequence (P15170 whole entry): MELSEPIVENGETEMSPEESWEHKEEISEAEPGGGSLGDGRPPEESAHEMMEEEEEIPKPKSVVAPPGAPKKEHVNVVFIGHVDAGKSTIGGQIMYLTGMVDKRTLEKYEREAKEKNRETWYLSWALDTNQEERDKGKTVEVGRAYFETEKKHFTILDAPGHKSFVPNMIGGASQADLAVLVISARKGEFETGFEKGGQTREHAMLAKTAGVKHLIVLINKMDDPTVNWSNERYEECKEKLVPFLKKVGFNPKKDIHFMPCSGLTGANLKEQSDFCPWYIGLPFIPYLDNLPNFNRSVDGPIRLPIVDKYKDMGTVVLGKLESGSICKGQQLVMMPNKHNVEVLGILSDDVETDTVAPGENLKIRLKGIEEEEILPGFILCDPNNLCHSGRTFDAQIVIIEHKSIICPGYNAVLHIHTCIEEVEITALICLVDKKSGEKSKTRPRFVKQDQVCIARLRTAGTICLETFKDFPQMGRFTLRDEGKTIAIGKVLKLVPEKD
# Procedure: We conducted a global proteomic assay using tandem mass tags (TMT) labeled mass-spectrometry to unbiasedly quantify the protein change upon LLC0424 treatment in VCaP and RPMI-8402 cells. […] We further used SEM cell line to cross-validate the selectivity of LLC0424 for NSD2 over NSD1 and NSD3 as well as CRBN neo-substrates IKZF1, IKZF3, GSPT1, and CK-1α using immunoblotting. […] When we increased the treatment time of LLC0424 in SEM cells, we observed mild decrease of GSPT1 from 12 h (SI, Figure S3F).
# NSD2 is the primary methyltransferase that transfers dimethyl to H3K36 in ALL with NSD2 gain-of-function mutation. Therefore, the effects of LLC0424 on H3K36me2 was evaluated in SEM and RPMI-8402 cells. […] Meanwhile, LLC0424 treatment also led to downregulation of H3K36Me2 in RPMI-8402 cells within 24 h (Figure 6B). […] We also conducted a colony formation assay to evaluate the effect of LLC0424 on the stem cell-like property of the leukemia cells. […] As LLC0424 leads to strong degradation of both NSD2-L and NSD2-S, the phenotypic changes upon LLC0424 treatment result from complete inactivation of NSD2 activity, including adaptor-like function of NSD2-S and SET-domain dependent enzymatic function of NSD2-L. The specific contributions of NSD2 isoforms warrant future investigation. To characterize the genes affected by LLC0424 treatment, we performed global transcriptome analysis of SEM cells treated by DMSO, LLC0424, or LLC0424N. LLC0424 treatment led to significant changes in the transcriptome of SEM cells with over 326 differentially expressed genes. […] We further explored the contribution of NSD2 loss to the phenotype we observed in SEM cells. […] Still, whether and how LLC0424’s modest effect on GSPT1 contributes to the cytotoxic effects remains to be further explored. We also designed and synthesized the negative control LLC0877 bearing the warhead that is devoid of NSD2 binding (SI, Figure S5A).
# After treatment, the cultured cells were collected and rinsed with phosphate-buffered saline (PBS) in room temperature. The cells were treated with RIPA buffers (ThermoFisher Scientific) supplemented with Halt Protease and Phosphatase Inhibitor Cocktail (ThermoFisher Scientific). After sonication and centrifugation, the total amount of protein in the cell lysates was measured by Pierce Bovine Serum Albumin Standard Pre-Diluted Set (ThermoFisher Scientific). After mixed with LDS-sample buffer (Invitrogen) supplemented with Sample Reducing Agent (Invitrogen) and heated in 70 °C for 10 min, equal amount of protein was loaded into NuPAGE 4–12%, Bis-Tris Protein Gel (ThermoFisher Scientific) or NuPAGE 3–8%, Tris-Acetate Protein Gel (ThermoFisher Scientific), and blotted with primary antibodies. […]
# [3] = system: RPMI-8402 cells; assay: Cell viability assay (CellTiter-Glo, 7 days), RPMI-8402; format: cell-based, human
# Procedure: (§1) Cells were plated in 50 μL of the corresponding media in 96-well plates. A 2-fold dilution series of 2* concentrated LLC0424 was prepared in a medium with the highest concentration being 60 μM. Then 50 μL of the 2× compound-containing mixture was added to each well with 6 replicates for each concentration, reaching 1× concentration, with the highest concentration being 30 μM. The plate was incubated for 7 days. At the end point, the CellTiter-Glo assay (Promega) was then performed according to the manufacturer’s instruction to determine cell proliferation. The luminescence signal intensity of each well was acquired on an Infinite M1000Pro microplate reader and the data was analyzed using GraphPad Prism software (GraphPad Software).
# [4] = system: SEM cells; assay: Cell viability assay (CellTiter-Glo, 7 days), SEM; format: cell-based, human
# Procedure: as §1
# [5] = molecular target: T3, NSD2 (both long and short isoforms) (Homo sapiens, UniProt O96028); assay: NSD2 degradation by immunoblotting in ALL cell lines RPMI-8402 and SEM (NSD2 E1099K); format: cell-based; conditions: SI Figure S5B, SEM cells
# T3 sequence (O96028 211-350 limits assumed): T1 sequence (O96028 211-350 limits assumed)
# Procedure: As previous studies have shown that ALL cell lines with NSD2 gain-of-function mutation are more dependent on NSD2 regarding H3K36me2 level and cell proliferation,[7],[8] we further characterized LLC0424 in ALL cell lines with NSD2 E1099K gain-of-function mutation (RPMI-8402 and SEM). We first treated these cells with LLC0424 with different concentrations for 24 h. […] In addition, we compared the degradation efficiency of LLC0424 with the two previously published NSD2 degraders 6 and 7 at different concentrations and time points.
# After treatment, the cultured cells were collected and rinsed with phosphate-buffered saline (PBS) in room temperature. The cells were treated with RIPA buffers (ThermoFisher Scientific) supplemented with Halt Protease and Phosphatase Inhibitor Cocktail (ThermoFisher Scientific). After sonication and centrifugation, the total amount of protein in the cell lysates was measured by Pierce Bovine Serum Albumin Standard Pre-Diluted Set (ThermoFisher Scientific). After mixed with LDS-sample buffer (Invitrogen) supplemented with Sample Reducing Agent (Invitrogen) and heated in 70 °C for 10 min, equal amount of protein was loaded into NuPAGE 4–12%, Bis-Tris Protein Gel (ThermoFisher Scientific) or NuPAGE 3–8%, Tris-Acetate Protein Gel (ThermoFisher Scientific), and blotted with primary antibodies. After incubated with HRP-conjugated secondary antibodies, the membranes were developed with ECL Prime Western Blotting Detection Reagent (cytiva) and imaged on Odyssey Fc Imager (LiCOR Biosciences).
smiles,measurement,setting,value
O=C1CCC(N2C(=O)c3ccccc3C2=O)C(=O)N1 (stereo not shown) [thalidomide],effect of pretreatment on LLC0424-mediated NSD2 degradation,"[1]; RPMI-8402 and SEM cells, pretreated 2 h, then 2 μM LLC0424 for 12 h",reversed the LLC0424-mediated NSD2 degradation
CC(C)N(Cc1ccc(C(=O)Nc2ccc(C(=O)NC3CCN(c4ccc5c(c4)C(=O)N(C4CCC(=O)NC4=O)C5=O)CC3)cc2)cc1)C(=O)c1ccc2c(c1)OCC(=O)N2 (stereo not shown) [LLC0877],GSPT1 degradation by negative control,[2],fast and strong degradation of GSPT1
same,"IC50 (growth, cell viability)",[3],lower IC50 values
same,"IC50 (growth, cell viability)",[4],lower IC50 values
same,NSD2 degradation by negative control,[5],did not degrade NSD2
CC(C)C[C@H](NC(=O)[C@H](Cc1ccccc1)NC(=O)c1cnccn1)B(O)O [bortezomib],effect of pretreatment on NSD2 protein reduction induced by LLC0424,[1],rescued the NSD2 protein reduction induced by LLC0424
NS(=O)(=O)OC[C@@H]1C[C@@H](n2ccc3c(N[C@H]4CCc5ccccc54)ncnc32)C[C@@H]1O [MLN4924],effect of pretreatment on NSD2 protein reduction induced by LLC0424,[1],rescued the NSD2 protein reduction induced by LLC0424
